The target of experiment [1] is T1, TLR2 (Mus musculus, UniProt Q9QUN7).
T1 construct: endogenous in cells; host or cells: RAW 264.7
As to the kind of experiment: TLR2 functional assay, cytokine release from RAW 264.7 mouse macrophage cell line. The note with it: average of all runs. Format: cell-based. How it is done:
Cells of the immune system respond to TLR agonists in part by secreting cytokines. Functional assays for TLR2 agonists measure cytokine release from purified immune cells or immortalized cell lines derived from immune cells. Cytokine release is measured by standard ELISA approaches or multiplexed analysis using the Meso Scale Discovery (MSD) platform.
Purified primary human peripheral blood mononuclear cells or RAW 264.7 mouse macrophage cell line cells are plated at approximately 40,000 cells per well. Cells are treated with agonist compounds and assays 6-24 hours post-treatment for cytokines released into the cell culture media.
Following assay measurements utilizing either HEK-Blue detection or cytokine release, all data is analyzed with the GraphPad Prism8 statistical package to determine EC50, binding and activity metrics for the TLR2 modulators.
Numerous cell lines derived from various cell types can respond to TLR2 agonists with stereotyped cytokine and chemokine secretion. In particular, cell lines derived from macrophages respond robustly to TLR2 agonists by secreting a wide array of cytokines, including (but not limited to) TNF-alpha, IL-1, IL-10 and IL-12. The human monocytic cell line THP-1, the mouse macrophage line RAW-264.7, and the rat macrophage line NR8383 were used. For each assay, the respective cell lines were plated into 96-well plates overnight and then treated the following day with various TLR2-engaging compounds at varying concentrations. The next day, supernatants were collected and assayed by multiplex immunodetection for cytokines released (MSD detection kits for respective species).
Data provided in Table 5 is generated using protocols described in Example 45 and 46.

The target in experiment [2] is TLR2 (Homo sapiens, UniProt O60603). Briefly: TLR2 agonist screening assay, HEK-Blue TLR2 reporter cell line (NF-kB-driven SEAP, absorbance at 600 nm). It is filed as cell-based. Also noted: host or cells: HEK-293 (HEK-Blue TLR2 reporter cell line). The note with it: HEK-Blue TLR2 reporter cells, agonist mode. An outline of the steps:
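EC50 values come from dilution series of agonist on TLR2-transfected HEK-293 reporter cells carrying an NF-kB-SEAP construct. Cells sat overnight with compound in substrate-containing Detection medium at 1% DMSO, and secreted phosphatase activity was quantified as absorbance at 600 nm.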

The structures appear in SMILES notation. A value given as a limit tells only on which side of the number the result lay.

TLR2 (Homo sapiens, UniProt O60603), sequence (O60603 21-784): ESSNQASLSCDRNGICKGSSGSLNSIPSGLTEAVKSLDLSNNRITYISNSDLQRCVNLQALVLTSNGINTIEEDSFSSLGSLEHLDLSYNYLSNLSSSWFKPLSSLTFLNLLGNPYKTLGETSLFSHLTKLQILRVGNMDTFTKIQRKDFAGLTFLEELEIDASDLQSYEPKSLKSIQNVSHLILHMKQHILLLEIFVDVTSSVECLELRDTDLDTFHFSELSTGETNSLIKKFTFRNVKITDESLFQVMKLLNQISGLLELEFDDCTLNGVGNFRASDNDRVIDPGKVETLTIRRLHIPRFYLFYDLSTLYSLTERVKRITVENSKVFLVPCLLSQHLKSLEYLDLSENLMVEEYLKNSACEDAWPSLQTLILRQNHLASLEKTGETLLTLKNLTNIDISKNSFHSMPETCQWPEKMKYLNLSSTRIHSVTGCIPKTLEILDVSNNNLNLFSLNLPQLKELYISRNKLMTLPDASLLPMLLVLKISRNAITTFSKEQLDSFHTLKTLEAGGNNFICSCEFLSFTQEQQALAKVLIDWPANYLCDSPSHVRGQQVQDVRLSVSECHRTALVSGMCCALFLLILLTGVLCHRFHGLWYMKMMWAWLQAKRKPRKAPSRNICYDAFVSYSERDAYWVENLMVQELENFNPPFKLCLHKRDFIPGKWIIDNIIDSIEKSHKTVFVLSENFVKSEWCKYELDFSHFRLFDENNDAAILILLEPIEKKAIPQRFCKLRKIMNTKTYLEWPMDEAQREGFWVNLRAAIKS
T1 sequence (Q9QUN7 25-784): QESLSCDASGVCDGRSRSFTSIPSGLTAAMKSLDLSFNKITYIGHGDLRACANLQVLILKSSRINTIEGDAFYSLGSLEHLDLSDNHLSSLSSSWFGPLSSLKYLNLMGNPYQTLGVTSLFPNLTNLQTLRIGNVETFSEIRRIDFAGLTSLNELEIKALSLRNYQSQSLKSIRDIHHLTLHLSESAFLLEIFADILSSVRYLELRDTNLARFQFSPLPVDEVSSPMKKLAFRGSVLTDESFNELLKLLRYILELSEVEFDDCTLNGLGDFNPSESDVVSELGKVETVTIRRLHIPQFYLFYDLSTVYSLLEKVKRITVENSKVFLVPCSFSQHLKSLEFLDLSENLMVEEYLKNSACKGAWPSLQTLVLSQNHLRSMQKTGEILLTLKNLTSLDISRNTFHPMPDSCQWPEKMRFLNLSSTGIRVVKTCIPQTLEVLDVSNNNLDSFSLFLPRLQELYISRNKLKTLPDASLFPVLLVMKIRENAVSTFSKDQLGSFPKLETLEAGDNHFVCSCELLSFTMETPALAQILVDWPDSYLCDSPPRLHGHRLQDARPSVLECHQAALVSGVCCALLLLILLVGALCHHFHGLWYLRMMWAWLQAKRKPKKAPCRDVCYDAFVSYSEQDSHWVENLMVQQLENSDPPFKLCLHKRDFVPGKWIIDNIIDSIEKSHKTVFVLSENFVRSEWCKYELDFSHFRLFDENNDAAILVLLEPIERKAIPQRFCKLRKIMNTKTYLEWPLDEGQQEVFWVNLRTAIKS

On to `CCCCCCCCNC(=O)N[C@@H](Cn1cc(-c2ccc(C(=O)N3C[C@@H](C(=O)N[C@H]4C[C@@H]4c4ccccc4)[C@H](C(=O)N[C@H]4C[C@@H]4c4ccccc4)C3)cc2)nn1)C(=O)NCCCCCC` [Compound 221, (3S,4S)-1-(4-(1-((S)-3-(hexylamino)-2-(3-octylureido)-3-oxopropyl)-1H-1,2,3-triazol-4-yl)benzoyl)-N3,N4-bis((1S,2R)-2-phenylcyclopropyl)pyrrolidine-3,4-dicarboxamide], for which the EC50 in experiment [1] and in experiment [2] (average of all runs (Table 4)) was 0.1 to 50 nM in each case.
With `O=C(N[C@@H](CNC(=O)c1ccc(C(=O)N2C[C@@H](C(=O)N[C@H]3C[C@@H]3c3ccccc3)[C@H](C(=O)N[C@H]3C[C@@H]3c3ccccc3)C2)cc1)C(=O)N[C@H]1C[C@@H]1c1ccccc1)N[C@H]1C[C@@H]1c1ccccc1` [Compound 223, (3S,4S)-1-(4-(((S)-3-oxo-3-(((1S,2R)-2-phenylcyclopropyl)amino)-2-(3-((1S,2R)-2-phenylcyclopropyl)ureido)propyl)carbamoyl)benzoyl)-N3,N4-bis((1S,2R)-2-phenylcyclopropyl)pyrrolidine-3,4-dicarboxamide], the figures for the EC50 in experiment [1] and in experiment [2] (average of all runs (Table 4)) were 351 to 1000 nM and > 1000 nM, respectively.
Regarding `CCCCCCCC(=O)N[C@@H](Cn1cc(-c2ccc(C(=O)N3C[C@@H](C(=O)N[C@H]4C[C@@H]4c4ccccc4)[C@H](C(=O)N[C@H]4C[C@@H]4c4ccccc4)C3)cc2)nn1)C(=O)NCCCCCC` [Compound 219, (3S,4S)-1-(4-(1-((S)-3-(hexylamino)-2-octanamido-3-oxopropyl)-1H-1,2,3-triazol-4-yl)benzoyl)-N3,N4-bis((1S,2R)-2-phenylcyclopropyl)pyrrolidine-3,4-dicarboxamide], the EC50 in experiment [1] and in experiment [2] (average of all runs (Table 4)) was 0.1 to 50 nM in each case.
With `CCCCCCCCCC(=O)N[C@@H](CNC(=O)c1ccc(C(=O)N2C[C@@H](C(=O)N[C@H]3C[C@@H]3c3ccccc3)[C@H](C(=O)N[C@H]3C[C@@H]3c3ccccc3)C2)cc1)C(=O)NCCCCCC` [Compound 175, (3S,4S)-1-(4-(((S)-2-decanamido-3-(hexylamino)-3-oxopropyl)carbamoyl)benzoyl)-N3,N4-bis ((1S,2R)-2-phenylcyclopropyl) pyrrolidine-3,4-dicarboxamide], the values for the EC50 in experiment [1] and in experiment [2] (average of all runs (Table 4)) were 51 to 350 nM and 0.1 to 50 nM, respectively.
As for `CCCCCCCNC(=O)[C@H](CNC(=O)c1ccc(C(=O)N2C[C@@H](C(=O)N[C@H]3C[C@@H]3c3ccccc3)[C@H](C(=O)N[C@H]3C[C@@H]3c3ccccc3)C2)cc1)NC(=O)CCCCCCC` [Compound 184, (3S,4S)-1-(4-(((S)-3-(heptylamino)-2-octanamido-3-oxopropyl)carbamoyl)benzoyl)-N3,N4-bis((1S,2R)-2-phenylcyclopropyl)pyrrolidine-3,4-dicarboxamide], the values for the EC50 in experiment [1] and in experiment [2] (average of all runs (Table 4)) were 51 to 350 nM and 0.1 to 50 nM, respectively.
As to `CO[C@H]1CN(C(=O)c2ccc(C(=O)N3C[C@@H](C(=O)N[C@H]4C[C@@H]4c4ccccc4)[C@H](C(=O)N[C@H]4C[C@@H]4c4ccccc4)C3)cc2)C[C@@H]1NC(=O)N[C@H]1C[C@@H]1c1ccccc1` [Compound 224, (3S,4S)-1-(4-((3S,4S)-3-methoxy-4-(3-((1S,2R)-2-phenylcyclopropyl)ureido)pyrrolidine-1-carbonyl)benzoyl)-N3,N4-bis((1S,2R)-2-phenylcyclopropyl)pyrrolidine-3,4-dicarboxamide], the EC50 in experiment [1] and in experiment [2] (average of all runs (Table 4)) was > 1000 nM each time.
`CCCCCCCCCCCCCNC(=O)N[C@H]1CN(C(=O)c2ccc(C(=O)N3C[C@@H](C(=O)N[C@H]4C[C@@H]4c4ccccc4)[C@H](C(=O)N[C@H]4C[C@@H]4c4ccccc4)C3)cc2)C[C@H]1OC` [Compound 210, (3S,4S)-1-(4-((3R,4S)-3-methoxy-4-(3-tridecylureido)pyrrolidine-1-carbonyl)benzoyl)-N3,N4-bis((1S,2R)-2-phenylcyclopropyl)pyrrolidine-3,4-dicarboxamide]: the EC50 in experiment [1] is > 1000 nM; in experiment [2] (average of all runs (Table 4)), 0.1 to 50 nM.
Turning to `CCCCCCCCCCCCCNC(=O)N[C@@H](CNC(=O)c1ccc(C(=O)N2C[C@@H](C(=O)N[C@H]3C[C@@H]3c3ccccc3)[C@H](C(=O)N[C@H]3C[C@@H]3c3ccccc3)C2)cc1)COC` [Compound 198, (3S,4S)-1-(4-(((S)-3-methoxy-2-(3-tridecylureido)propyl)carbamoyl)benzoyl)-N3,N4-bis((1S,2R)-2-phenylcyclopropyl)pyrrolidine-3,4-dicarboxamide], the EC50 in experiment [1] and in experiment [2] (average of all runs (Table 4)) was > 1000 nM in each case.
On to `CCCCCCCCCCCCCNC(=O)N[C@H]1CN(C(c2ccc(C(=O)N3C[C@@H](C(=O)N[C@H]4C[C@@H]4c4ccccc4)[C@H](C(=O)N[C@H]4C[C@@H]4c4ccccc4)C3)cc2)C(F)(F)F)C[C@@H]1OC` (stereo partly drawn) [Compound 189, (3S,4S)—N3,N4-bis((1S,2R)-2-phenylcyclopropyl)-1-(4-(2,2,2-trifluoro-1-((3S,4S)-3-methoxy-4-(3-tridecylureido)pyrrolidin-1-yl)ethyl)benzoyl)pyrrolidine-3,4-dicarboxamide], for which the EC50 was in the range of 351 to 1000 nM in experiment [1] and 0.1 to 50 nM in experiment [2] (average of all runs (Table 4)).
`CCCCCCCCCCCCCCCN1C[C@@H](NC(=O)c2ccc(C(=O)N3C[C@@H](C(=O)N[C@H]4C[C@@H]4c4ccccc4)[C@H](C(=O)N[C@H]4C[C@@H]4c4ccccc4)C3)cc2)CCC1=O` [Compound 180, (3S,4S)-1-(4-(((S)-6-oxo-1-pentadecylpiperidin-3-yl)carbamoyl)benzoyl)-N3,N4-bis((1S,2R)-2-phenylcyclopropyl)pyrrolidine-3,4-dicarboxamide]: the EC50 in experiment [2] (average of all runs (Table 4)) is > 1000 nM.
Regarding `CCCCCCCCCC(=O)N[C@@H](COCc1ccc(C(=O)N2C[C@@H](C(=O)N[C@H]3C[C@@H]3c3ccccc3)[C@H](C(=O)N[C@H]3C[C@@H]3c3ccccc3)C2)cc1)C(=O)NCCCCCC` [Compound 263, (3S,4S)-1-(4-(((S)-2-decanamido-3-(hexylamino)-3-oxopropoxy)methyl)benzoyl)-N3,N4-bis((1S,2R)-2-phenylcyclopropyl) pyrrolidine-3,4-dicarboxamide], in experiment [2] (average of all runs (Table 4)), the EC50 was 351 to 1000 nM.
Consider `CCCCCCNC(=O)[C@H](CNC(=O)CCCCCC)NC(=O)c1ccc(C(=O)N2C[C@@H](C(=O)N[C@H]3C[C@@H]3c3ccccc3)[C@H](C(=O)N[C@H]3C[C@@H]3c3ccccc3)C2)cc1` [Compound 015], for which the EC50 in experiment [2] (average of all runs (Table 3)) was > 1000 nM.
Compound `CCCCCCCCCCCCCCNC(=O)[C@@H]1CN(C(=O)c2ccc(C(=O)N3C[C@@H](C(=O)N[C@H]4C[C@@H]4c4ccccc4)[C@H](C(=O)N[C@H]4C[C@@H]4c4ccccc4)C3)cc2)C[C@H]1NC(C)=O` [Compound 028, (3S,4S)-1-(4-((3S,4R)-3-acetamido-4-(tetradecylcarbamoyl)pyrrolidine-1-carbonyl)benzoyl)-N3,N4-bis((1S,2R)-2-phenylcyclopropyl)pyrrolidine-3,4-dicarboxamide] registered an EC50 in experiment [2] (average of all runs (Table 3)) of 51 to 350 nM.
Consider `CCCCCCCCCCCCCCNC(=O)C[C@@H]1CCCN1C(=O)c1ccc(C(=O)N2C[C@@H](C(=O)N[C@H]3C[C@@H]3c3ccccc3)[C@H](C(=O)N[C@H]3C[C@@H]3c3ccccc3)C2)cc1` [Compound 135, (3S,4S)-1-(4-((S)-2-(2-oxo-2-(tetradecylamino)ethyl)pyrrolidine-1-carbonyl)benzoyl)-N3,N4-bis((1S,2R)-2-phenylcyclopropyl) pyrrolidine-3,4-dicarboxamide], for which the EC50 in experiment [2] (average of all runs (Table 4)) was > 1000 nM.
With `O=C(N[C@H]1C[C@@H]1c1ccccc1)[C@@H]1CN(C(=O)c2ccc(C(=O)N3C[C@@H](C(=O)N[C@@H]4C[C@H]4c4cccnc4)[C@H](C(=O)N[C@@H]4C[C@H]4c4cccnc4)C3)cc2)C[C@H]1C(=O)N[C@H]1C[C@@H]1c1ccccc1` (single isomer, unassigned) [Compound 095, (3S,4S)-1-(4-((3S,4S)-3,4-bis(((1S*,2R*)-2-(pyridin-3-yl)cyclopropyl)carbamoyl)pyrrolidine-1-carbonyl)benzoyl)-N3,N4-bis((1S,2R)-2-phenylcyclopropyl) pyrrolidine-3,4-dicarboxamide], the EC50 in experiment [2] (average of all runs (Table 4)) lay in the range of 351 to 1000 nM.
The same measure, in the same setting: in the case of `CCCCCCCCCCCCCCC(=O)NC1CCN(S(=O)(=O)c2ccc(C(=O)N3C[C@@H](C(=O)N[C@H]4C[C@@H]4c4ccccc4)[C@H](C(=O)N[C@H]4C[C@@H]4c4ccccc4)C3)cc2)CC1` [Compound 165, (3S,4S)-1-(4-((4-pentadecanamidopiperidin-1-yl)sulfonyl)benzoyl)-N3,N4-bis((1S,2R)-2-phenylcyclopropyl)pyrrolidine-3,4-dicarboxamide] it was > 1000 nM; in that of `CCCCCCCCCC(=O)N[C@@H](CN1Cc2ccc(C(=O)N3C[C@@H](C(=O)N[C@H]4C[C@@H]4c4ccccc4)[C@H](C(=O)N[C@H]4C[C@@H]4c4ccccc4)C3)cc2C1=O)C(=O)NCCCCCC` [Compound 241, (3S,4S)-1-(2-((S)-2-decanamido-3-(hexylamino)-3-oxopropyl)-3-oxoisoindoline-5-carbonyl)-N3,N4-bis((1S,2R)-2-phenylcyclopropyl)pyrrolidine-3,4-dicarboxamide], 51 to 350 nM.

One may read the EC50 as the concentration at which the effect is half-maximal. High values mean a need for much substance, low ones an effect from little substance.

For the origin of these results see patent US11951094B2, “TLR2 modulator compounds, pharmaceutical compositions and uses thereof” (Axial Therapeutics, Inc., priority 2020, dated 2024).
